In patent publication US20040037897A1, “Treatment of drug resistant organisms” (priority 2000, published 2004):

Test system: Staphylococcus aureus organisms
Test: In vitro tests of susceptibility to NO
Type: cell-based

Structure (SMILES): [N]=O [NO, Nitric oxide]
- susceptibility to NO: susceptible
